One assay concerns S. epi. Description: Minimum Inhibitory Concentration (MIC) of various carboxylic acids. In kind it is cell-based. To be noted: for potential to inhibit bacteria at an acidic pH: Table 1. On the procedure:
The following MIC (Minimum Inhibitory Concentration) was done on various carboxylic acids. […] In this case, the MIC was tested in two different growth media. […] The MIC or minimum inhibitory concentration test determines antimicrobial activity of a material against a specific bacteria. The most commonly employed methods are the tube dilution method and agar dilution method. Test products that are not clear or precipitate the growth media are tested by agar dilution method which is similar to the tube dilution method except dilutions are plated on agar. The tube dilution test is the standard method for determining levels of microbial resistance to an antimicrobial agent. Serial dilutions of the test agent are made in a liquid microbial growth medium which is inoculated with a standardized number of organisms and incubated for a prescribed time. The lowest concentration (highest dilution) of test agent preventing appearance of turbidity (growth) is considered to be the minimal/minimum inhibitory concentration (MIC). At this dilution the test agent is bacteriostatic.

Another assay has as its system S. epidermidis. Description: Finished Product Soleris Method (detection time, resistance to growth of bacteria). In kind it is cell-based. To be noted: Table 3; 1.5% acid in clear gel, 1:10 dilution. As for the experimental part:
The products shown in examples 1-14 in Table 2 were tested for their resistance to the growth of bacteria by the Finished Product Soleris Method in a 1:10 dilution with artificial eccrine, pH 6, non-stabilized as provided by Pickering Solutions.
The products shown in examples 15-30 in Table 5 were tested for their resistance to the growth of bacteria by the Finished Product Soleris Method in a 1:10 dilution with artificial eccrine, pH 6, non-stabilized as provided by Pickering Solutions.
The products shown in examples 31-34 in table 8 were tested for their resistance to the growth of bacteria by the Finished Product Soleris Method in a 1:10 dilution with artificial eccrine, pH 6, non-stabilized as provided by Pickering Solutions.
Sample preparation is done in the following manner. The product to be tested is weighed into a vial at a ratio of 1 part product to 10 parts Artificial Eccrine, custom pH 6, non-stabilized as obtained by Pickering Laboratories (cat. No. 1700-0023). In some cases where products have a higher hostility, the dilution in a particular study may be 1 part deodorant product to 100 parts Artificial Eccrine, custom pH 6, non-stabilized. Products are heated to 72° C. for 30 minutes to melt solid products and facilitate dispersion into the artificial eccrine. […] There may be some insoluble media present after dispersion. The dilutions remainder of the procedure is described below in “Analyzing via Soleris”.
• S. epidermidis grown overnight on tryptic soy agar (37 C) • Colony from agar is suspended in 25 ml tryptic soy broth in baffled flask, and incubated overnight on shaking platform (37 C) • 1 ml of overnight culture is diluted into 9 ml of sterile H2O (this serves as the inoculum for experimental formulas) • For testing liquid products, 5 ml of experimental formula transferred to 15 ml conical tube. For testing solid formulations, a 48 or 96-well tissue culture plates is used, with each well containing 100 ul of solidified formulations. Alternately, for solid formulations, collect […] and apply 10-20 g of water and let sit at least 1 hour. […]

Where [1] appears, read: growth media pH 4.2, read-out: MIC S. epi pH 4.2.
Where [2] appears, read: growth media pH 7.2, read-out: MIC S. epi pH 7.2.

Molecules are shown by their SMILES. In brackets after ≈: the same amount, converted by molar mass. Like-named read-outs stand apart in the source and are kept apart here.

One may read the MIC as the least concentration at which growth counts as inhibited. `O=C(O)CCCCCCCC(=O)O` [Azelaic Acid, reference compound]: the “potential to inhibit bacteria at an acidic pH” value (from here on “potential to inhibit bacteria”) in the assay on S. epi is given as “greatest potential to inhibit bacteria at an acidic pH”. In addition, the MIC in the assay with S. epi (setting [1]) was 125 µg/mL (≈ 664 µM); in the assay on S. epi (setting [2]), above 500 µg/mL.

For the compound `CCCCCCCC(=O)Oc1ccccc1C(=O)O` [Capryloyl Salicylic Acid], the “potential to inhibit bacteria” value with S. epi was “greatest potential to inhibit bacteria at an acidic pH”. Besides, the MIC in the assay with S. epi (setting [1]) is 4 µg/mL (≈ 15.1 µM); in the assay on S. epi (setting [2]), 125 µg/mL (≈ 473 µM).

In the case of `CCCCCCCCC(O)C(=O)O` (stereo not shown) [Hydroxycapric Acid], in the assay on S. epi, the “potential to inhibit bacteria” value was “greatest potential to inhibit bacteria at an acidic pH”. Also, the “MIC S. epi pH 4.2” value in the assay on S. epi (growth media pH 4.2) is recorded as 15.6 ppm. Besides, the “MIC S. epi pH 7.2” value against S. epi (growth media pH 7.2) was above 2500 ppm. Further, the “ability to prevent the growth of bacteria” value (“ability” for short) in the assay with S. epidermidis was “strong ability to prevent the growth of bacteria”.

As to `O=c1cc(CO)occ1O` [Kojic Acid], the MIC in the assay on S. epi (setting [1]) and with S. epi (setting [2]) was above 500 µg/mL throughout.

Consider `O=C(O)C(O)c1ccccc1` (stereo not shown) [Mandelic Acid], for which the “potential to inhibit bacteria” value with S. epi is given as “greatest potential to inhibit bacteria at an acidic pH”. Moreover, the figures for the MIC with S. epi (setting [1]) and with S. epi (setting [2]) were 312 µg/mL (≈ 2050 µM) and above 2500 µg/mL, respectively. The “ability” value in the assay with S. epidermidis is on record as “strong ability to prevent the growth of bacteria”.

Turning to `O=C(O)c1ccc(O)c(O)c1` [Protocatechuic Acid], the MIC in the assay with S. epi (setting [1]) was 500 µg/mL (≈ 3240 µM); with S. epi (setting [2]), above 500 µg/mL.

With `O=C(O)c1ccccc1O` [salicylic acid, reference compound], the “ability” value with S. epidermidis is “strong ability to prevent the growth of bacteria”.
